# From US20190374508A1, “THERAPEUTIC TOPICAL COMPOSITIONS OF APREMILAST” (SARUDBHAVA FORMULATIONS PRIVATE LIMITED, priority 2017, published 2019)
# System: TPA induced ear inflammation
# Test: 12-O-Tetradecanoylphorbol-13-Acetate (TPA) induced ear inflammation in mice
# Format: in vivo, Male C57BL/6 mice
# Conditions: for dose dependence of efficacy: topical test formulation
# Protocol: Efficacy of the test formulations was determined in studies using 12-O-Tetradecanoylphorbol-13-Acetate (TPA) induced ear inflammation in mice. Excessive proliferation of keratinocytes is a characteristic of psoriasis, and this cell type is a well reported target of therapy for this disease. In the present study, chronic skin inflammation was induced by repeated topical application of TPA, which is recognized by prolonged skin reaction & epidermal hyperplasia. The animal model used was Male C57BL/6 mice 6 to 8 weeks of age. Protocol: • a) Animals were randomized based on body weight and divided into six different groups consisting of 8 animals. • b) 20 μL of TPA solution containing 2 μg of TPA in vehicle (2% DMSO and 98% methanol) was applied topically on both ventral and dorsal side (10 μL each side) of the right ear of all the animals except group Group G1 on day 0, 2, 4, 7 and 9. • c) Group G1 and Group G2 were topically treated with placebo gel formulation on right ear. • d) Groups G3, G4 and G5 were topically treated with test compositions comprising apremilast (2% w/w, 4% w/w and 10% w/w concentration). • e) Group G6 was topically treated with 0.1% Betamethasone valerate cream. • f) All the formulations were uniformly applied, 25 mg each (50 mg per animal), in anterior and posterior region of the right ear daily from day 0 to day 10.
compound,measurement,setting,value
"CCOc1cc([C@@H](CS(C)(=O)=O)N2C(=O)c3cccc(NC(C)=O)c3C2=O)ccc1OC [apremilast, N-[2-[(1S)-1-(3-ethoxy-4-methoxyphenyl)-2-(methylsulfonyl)ethyl]-2,3-dihydro-1,3-dioxo-1H-isoin-dol-4-yl]acetamide]",efficacy against ear inflammation,"daily topical application of test formulation on right ear, day 0 to day 10, tested concentrations 2%, 4% and 10% apremilast",effective against ear inflammation
same,reduction on ear edema,topical test formulation containing 2% apremilast,poor reduction on ear edema which tapered off by day-9
same,dose dependence of efficacy,10% concentration of apremilast,saturation of efficacy
same,dose dependence of efficacy,between 2% and 4% apremilast,Dose-dependent increase in efficacy
